The NIST ThermoML archive (doi:10.1016/j.tca.2012.02.012)
Numbers after ± are expanded uncertainties.

Key:
[1] = xn = mol fraction of the nth substance listed; conditions: 1850 K, 101 kPa, Liquid, Knudsen
[2] = excess molar enthalpy (molar enthalpy of mixing); xn = mol fraction of the nth substance listed; conditions: 1850 K, 101 kPa, Liquid, Knudsen

Row | excess molar Gibbs energy ([1]; x1 = 0.5) [kJ/mol] | excess molar enthalpy ([2]; x1 = 0.5) [kJ/mol] | excess molar Gibbs energy ([1]; x2 = 0.5) [kJ/mol] | excess molar enthalpy ([2]; x2 = 0.5) [kJ/mol] | SMILES
1 | -0.761 ± 0.001 | 7.35 ± 0.075 |  |  | [Fe] [iron] + [Au]
2 |  |  | -7.21 ± 0.001 | -25.1 ± 0.25 | [Pd] [palladium] + [Fe]
